Experimental data published in US20240341307A1, “FUNGICIDAL COMPOSITIONS” (SYNGENTA CROP PROTECTION AG, priority 2021, published 2024).

What was measured:
Format in all cases: cell-based
Settings in all cases: alone
[1] = system: Glomerella lapenarium Syn. Colletotrichum lapenarium; test: Glomerella lapenarium syn. Colletotrichum lapenarium (anthracnose of cucurbits) growth inhibition in nutrient broth, photometric after 72 hrs at 620 nm
Excerpt: A synergistic effect exists whenever the action of an active ingredient combination is greater than the sum of the actions of the individual components. The action to be expected E for a given active ingredient combination obeys the so-called COLBY formula and can be calculated as follows (COLBY, S. R. “Calculating synergistic and antagonistic responses of herbicide combination”. Weeds, Vol. 15, pages 20-22; 1967): • ppm=milligrams of active ingredient (=a.i.) per liter of spray mixture • X=% action by active ingredient A) using p ppm of active ingredient • Y=% action by active ingredient B) using q ppm of active ingredient. According to COLBY, the expected (additive) action of active ingredients A)+B) using p+q ppm of active ingredient is If the action actually observed (O) is greater than the expected action (E), then the action of the combination is super-additive, i.e. there is a synergistic effect. In mathematical terms, synergism corresponds to a positive value for the difference of (O-E). In the case of purely complementary addition of activities (expected activity), said difference (O-E) is zero. A negative value of said difference (O-E) signals a loss of activity compared to the expected activity. Glomerella lapenarium Syn. Colletotrichum lapenarium (Anthracnose of Cucurbits): Conidia of the fungus from cryogenic storage were directly mixed into nutrient broth ([…] potato dextrose broth). A DMSO solution of the test compounds was placed into a microtiter plate (96-well format) and the nutrient broth containing the fungal spores was added to it. The test plates were incubated at 24 C and the inhibition of growth was determined photometrically after 72 hrs at 620 nm.

[2] = system: Botrytis cinerea; test: Botrytis cinerea (gray mould) growth inhibition in nutrient broth, microtiter plate, photometric after 72 hrs
Excerpt: A synergistic effect exists whenever the action of an active ingredient combination is greater than the sum of the actions of the individual components. The action to be expected E for a given active ingredient combination obeys the so-called COLBY formula and can be calculated as follows (COLBY, S. R. “Calculating synergistic and antagonistic responses of herbicide combination”. Weeds, Vol. 15, pages 20-22; 1967): • ppm=milligrams of active ingredient (=a.i.) per liter of spray mixture • X=% action by active ingredient A) using p ppm of active ingredient • Y=% action by active ingredient B) using q ppm of active ingredient. According to COLBY, the expected (additive) action of active ingredients A)+B) using p+q ppm of active ingredient is If the action actually observed (O) is greater than the expected action (E), then the action of the combination is super-additive, i.e. there is a synergistic effect. In mathematical terms, synergism corresponds to a positive value for the difference of (O-E). In the case of purely complementary addition of activities (expected activity), said difference (O-E) is zero. A negative value of said difference (O-E) signals a loss of activity compared to the expected activity. Botrytis cinerea (GRAY Mould): Conidia of the fungus from cryogenic storage were directly mixed into nutrient broth ([…] potato dextrose broth). A DMSO solution of the test compounds was placed into a microtiter plate (96-well format) and the nutrient broth containing the fungal spores was added to it. The test plates were incubated at 24 C and the inhibition of growth was determined photometrically after 72 hrs.

[3] = system: Sclerotinia sclerotiorum; test: Sclerotinia sclerotiorum (cottony rot, white mold) growth inhibition in nutrient broth, photometric after 72 hrs at 620 nm
Excerpt: A synergistic effect exists whenever the action of an active ingredient combination is greater than the sum of the actions of the individual components. The action to be expected E for a given active ingredient combination obeys the so-called COLBY formula and can be calculated as follows (COLBY, S. R. “Calculating synergistic and antagonistic responses of herbicide combination”. Weeds, Vol. 15, pages 20-22; 1967): • ppm=milligrams of active ingredient (=a.i.) per liter of spray mixture • X=% action by active ingredient A) using p ppm of active ingredient • Y=% action by active ingredient B) using q ppm of active ingredient. According to COLBY, the expected (additive) action of active ingredients A)+B) using p+q ppm of active ingredient is If the action actually observed (O) is greater than the expected action (E), then the action of the combination is super-additive, i.e. there is a synergistic effect. In mathematical terms, synergism corresponds to a positive value for the difference of (O-E). In the case of purely complementary addition of activities (expected activity), said difference (O-E) is zero. A negative value of said difference (O-E) signals a loss of activity compared to the expected activity. Sclerotinia sclerotiorum (Cottony Rot, White Mold, Etc.) Mycelial fragments of the fungus prepared from a fresh liquid culture were directly mixed into nutrient broth (PDB potato dextrose broth). A DMSO solution of the test compounds was placed into a microtiter plate (96-well format) and the nutrient broth containing the fungal spores was added to it. The test plates were incubated at 24 C and the inhibition of growth was determined photometrically after 72 hrs at 620 nm.

[4] = system: Alternaria solani; test: Alternaria solani (early blight tomato/potato) growth inhibition in nutrient broth, microtiter plate, photometric after 48 hrs
Excerpt: A synergistic effect exists whenever the action of an active ingredient combination is greater than the sum of the actions of the individual components. The action to be expected E for a given active ingredient combination obeys the so-called COLBY formula and can be calculated as follows (COLBY, S. R. “Calculating synergistic and antagonistic responses of herbicide combination”. Weeds, Vol. 15, pages 20-22; 1967): • ppm=milligrams of active ingredient (=a.i.) per liter of spray mixture • X=% action by active ingredient A) using p ppm of active ingredient • Y=% action by active ingredient B) using q ppm of active ingredient. According to COLBY, the expected (additive) action of active ingredients A)+B) using p+q ppm of active ingredient is If the action actually observed (O) is greater than the expected action (E), then the action of the combination is super-additive, i.e. there is a synergistic effect. In mathematical terms, synergism corresponds to a positive value for the difference of (O-E). In the case of purely complementary addition of activities (expected activity), said difference (O-E) is zero. A negative value of said difference (O-E) signals a loss of activity compared to the expected activity. Alternaria solani (Early Blight Tomato/Potato): Conidia of the fungus from cryogenic storage were directly mixed into nutrient broth (PDB potato dextrose broth). A DMSO solution of the test compounds was placed into a microtiter plate (96-well format) and the nutrient broth containing the fungal spores was added to it. The test plates were incubated at 24 C and the inhibition of growth was determined photometrically after 48 hrs.

[5] = system: Mycosphaerella arachidis syn. Cercospora arachidicola; test: Mycosphaerella arachidis syn. Cercospora arachidicola (brown leaf spot of peanut) growth inhibition in nutrient broth, photometric after 5-6 days at 620 nm
Excerpt: A synergistic effect exists whenever the action of an active ingredient combination is greater than the sum of the actions of the individual components. The action to be expected E for a given active ingredient combination obeys the so-called COLBY formula and can be calculated as follows (COLBY, S. R. “Calculating synergistic and antagonistic responses of herbicide combination”. Weeds, Vol. 15, pages 20-22; 1967): • ppm=milligrams of active ingredient (=a.i.) per liter of spray mixture • X=% action by active ingredient A) using p ppm of active ingredient • Y=% action by active ingredient B) using q ppm of active ingredient. According to COLBY, the expected (additive) action of active ingredients A)+B) using p+q ppm of active ingredient is If the action actually observed (O) is greater than the expected action (E), then the action of the combination is super-additive, i.e. there is a synergistic effect. In mathematical terms, synergism corresponds to a positive value for the difference of (O-E). In the case of purely complementary addition of activities (expected activity), said difference (O-E) is zero. A negative value of said difference (O-E) signals a loss of activity compared to the expected activity. Mycosphaerella arachidis syn. Cercospora arachidicola (Brown leaf spot of peanut): Conidia of the fungus from cryogenic storage were directly mixed into nutrient broth (PDB potato dextrose broth). A DMSO solution of the test compounds was placed into a microtiter plate (96-well format) and the nutrient broth containing the fungal spores was added to it. The test plates were incubated at 24 C and the inhibition of growth was determined photometrically after 5-6 days at 620 nm

O=C(Nc1ccccc1F)c1ccc(-c2noc(C(F)(F)F)n2)cc1 [Flufenoxadiazam, flufenoxadiazam]
Observed Activity (%) ([1]; 0.08 ppm): 20%
Observed Activity (%) ([1]; 0.246 ppm): 20%
Observed Activity (%) ([1]; 0.74 ppm): 20%
Observed Activity (%) ([1]; 2.22 ppm): 20%

O=C(NC1CCC1c1ccc(Cl)cc1Cl)c1cccnc1C(F)(F)F (stereo in doubt) [Cyclobutrifluram, cyclobutrifluram]
Observed Activity (%) ([2]; 0.066 ppm): 20%
Observed Activity (%) ([2]; 0.074 ppm): 20%
Observed Activity (%) ([2]; 0.2 ppm): 50%
Observed Activity (%) ([2]; 0.22 ppm): 50%
Observed Activity (%) ([2]; 0.66 ppm): 70%
Observed Activity (%) ([3]; 0.074 ppm): 20%
Observed Activity (%) ([4]; 0.0008 ppm): 0%
Observed Activity (%) ([4]; 0.00246 ppm): 20%
Observed Activity (%) ([4]; 0.0074 ppm): 50%
Observed Activity (%) ([4]; 0.022 ppm): 70%

CON(C(=O)c1cn(C)nc1C(F)F)C(C)Cc1c(Cl)cc(Cl)cc1Cl (stereo not drawn) [Pydiflumetofen, pydiflumetofen]
Observed Activity (%) ([2]; 0.0008 ppm): 0%
Observed Activity (%) ([2]; 0.00246 ppm): 20%
Observed Activity (%) ([2]; 0.0074 ppm): 50%
Observed Activity (%) ([2]; 0.022 ppm): 70%
Observed Activity (%) ([4]; 0.0008 ppm): 0%
Observed Activity (%) ([4]; 0.00246 ppm): 50%
Observed Activity (%) ([4]; 0.0074 ppm): 70%

CCC(=O)Oc1c(OC)ccnc1C(=O)N[C@@H](C)C(=O)O[C@@H](C)[C@@H](C)c1ccccc1C [Metarylpicoxamid, metarylpicoxamid]
Observed Activity (%) ([1]; 2 ppm): 70%
Observed Activity (%) ([2]; 0.0246 ppm): 0%
Observed Activity (%) ([2]; 0.074 ppm): 20%
Observed Activity (%) ([2]; 0.22 ppm): 50%
Observed Activity (%) ([2]; 0.66 ppm): 70%
Observed Activity (%) ([5]; 0.0246 ppm): 20%
Observed Activity (%) ([4]; 0.22 ppm): 20%
Observed Activity (%) ([4]; 0.66 ppm): 50%
Observed Activity (%) ([4]; 2 ppm): 50%

CCS(=O)(=O)c1cc(C(F)(F)F)ccc1C(=O)N(C(C)=O)c1ccc(OC(F)(F)F)cc1C(=O)OC [Compound A-1.1, Methyl 2-[acetyl-[2-ethylsulfonyl-4-(trifluoromethyl)benzoyl]amino]-5-(trifluoromethoxy)benzoate]
inhibition at 1 ppm ([1]; Colletotrichum, 1 ppm, read-out: Observed Activity (%)): 0%
inhibition at 2 ppm ([1]; Colletotrichum, 2 ppm, read-out: Observed Activity (%)): 0%
inhibition at 10 ppm ([1]; Colletotrichum, 10 ppm, read-out: Observed Activity (%)): 70%
inhibition at 20 ppm ([1]; Colletotrichum, 20 ppm, read-out: Observed Activity (%)): 70%
inhibition at 1 ppm ([2]; Botrytis cinerea, 1 ppm, read-out: Observed Activity (%)): 50%
inhibition at 2 ppm ([2]; Botrytis cinerea, 2 ppm, read-out: Observed Activity (%)): 50%
inhibition at 10 ppm ([2]; Botrytis cinerea, 10 ppm, read-out: Observed Activity (%)): 50%
inhibition at 20 ppm ([2]; Botrytis cinerea, 20 ppm, read-out: Observed Activity (%)): 50%
inhibition at 10 ppm ([3]; Sclerotinia sclerotiorum, 10 ppm, read-out: Observed Activity (%)): 0%
inhibition at 20 ppm ([3]; Sclerotinia sclerotiorum, 20 ppm, read-out: Observed Activity (%)): 0%
inhibition at 10 ppm ([5]; Mycosphaerella arachidis, 10 ppm, read-out: Observed Activity (%)): 0%
inhibition at 20 ppm ([5]; Mycosphaerella arachidis, 20 ppm, read-out: Observed Activity (%)): 0%
inhibition at 1 ppm ([4]; Alternaria solani, 1 ppm, read-out: Observed Activity (%)): 50%
inhibition at 2 ppm ([4]; Alternaria solani, 2 ppm, read-out: Observed Activity (%)): 50%

N#Cc1ccc(Oc2ccc(C(F)(F)C(O)(Cn3[nH]cnc3=S)c3ccc(F)cc3F)nc2)cc1 (stereo not drawn) [Fluoxytioconazole, fluoxytioconazole]
Observed Activity (%) ([2]; 0.22 ppm): 0%
Observed Activity (%) ([2]; 0.66 ppm): 0%
Observed Activity (%) ([2]; 2 ppm): 0%
Observed Activity (%) ([2]; 6 ppm): 20%
